In PubChem BioAssay (NCI) one finds TGI and GI50 data, which are given here for nine molecules.

Structures are written as SMILES. “And” between values parts separate entries of the source, which are not always exact repeats. Identical values can stand only once.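 Briefly, cells in 96-well plates were exposed to five compound concentrations for 48 h, and endpoints were estimated by linear interpolation. The concentration for 50% growth inhibition is given as GI50. At the TGI there is no net growth.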

Some test systems named below: SK-MEL-2 melanoma; ACHN renal; SF-268 CNS; MOLT-4 leukemia; RXF 393 renal; U251 CNS; K-562 leukemia; MDA-MB-231 breast.
Assay in all cases: NCI anticancer screen, dose series, 48 h

Take `CO[C@H]1C[C@@H]2CC[C@@H](C)[C@@](O)(O2)C(=O)C(=O)N2CCCC[C@H]2C(=O)O[C@H]([C@H](C)C[C@@H]2CC[C@@H](OCCO)[C@H](OC)C2)CC(=O)[C@H](C)C=C(C)[C@@H](O)[C@@H](OC)C(=O)[C@H](C)C[C@H](C)/C=C/C=C/C=C1C`: the TGI in the assay with SK-MEL-2 melanoma amounted to 21400 nM; in the assay on ACHN renal it was 18800 nM; in the assay with SF-268 CNS, 21100 nM; with MOLT-4 leukemia, 20300 nM; with U251 CNS it was 18100 nM; in the assay with K-562 leukemia it was 31400 nM. The molecule also displayed a TGI in the assay on MDA-MB-231 breast of 35400 nM. Besides, the GI50 in the assay on ACHN renal was less than 10 nM; in the assay with SF-268 CNS, 269 nM; with RXF 393 renal it was less than 10 nM; with U251 CNS it was less than 10.8 nM; with K-562 leukemia, 2410 nM; in the assay with MDA-MB-231 breast, 11600 nM.

As for `CCCCCCCCCCCC[n+]1ccc2ccccc2c1`, the GI50 in the assay with SK-MEL-2 melanoma was 1500 nM; in the assay with ACHN renal, 1890 nM; with SF-268 CNS, 1220 nM; with MOLT-4 leukemia, 681 nM; with RXF 393 renal, 1360 nM; in the assay on U251 CNS, 348 nM. The GI50 in the assay on K-562 leukemia was 247 nM; in the assay with MDA-MB-231 breast, 1280 nM. Further, the TGI with SK-MEL-2 melanoma was 3880 nM; in the assay on ACHN renal, 7560 nM; in the assay with SF-268 CNS, 2570 nM; in the assay with MOLT-4 leukemia it was 2650 nM; in the assay with RXF 393 renal, 2880 nM; with U251 CNS it was 1420 nM. The TGI came to 1960 nM in the assay on K-562 leukemia and 2850 nM with MDA-MB-231 breast.

Regarding `CCN(CC)Cc1cc2[nH]c3c4ccc(Cl)cc4ncc3c2cc1OC`, the GI50 is 7390 nM and 16500 nM in the assay on SK-MEL-2 melanoma; 5680 nM and 1980 nM in the assay on ACHN renal; 3330 nM and 2900 nM in the assay on SF-268 CNS; 2240 nM and 2560 nM in the assay on MOLT-4 leukemia; 2070 nM and 1680 nM in the assay on RXF 393 renal; 2180 nM and 2160 nM in the assay on U251 CNS. Further, the GI50 with K-562 leukemia is 3390 nM and 1890 nM; with MDA-MB-231 breast, 1830 nM and 1800 nM. Besides, the TGI is 16600 nM and 31600 nM in the assay on SK-MEL-2 melanoma; 16300 nM and 4980 nM with ACHN renal; 10000 nM and 9200 nM in the assay on SF-268 CNS; > 21800 nM and 6800 nM with MOLT-4 leukemia; 4250 nM and 3270 nM with RXF 393 renal; 5970 nM and 5390 nM with U251 CNS. Further, the TGI with K-562 leukemia is > 20500 nM and 4280 nM; in the assay with MDA-MB-231 breast, 7160 nM and 4510 nM.

As for `COc1nnc2ccc(N3CCC(c4ccc(OCCN5CCN(C)C(=O)[C@H]5C)cc4)CC3)nn12`, the GI50 in the assay with SK-MEL-2 melanoma is 678 nM; in the assay with ACHN renal it was 172 nM; in the assay on SF-268 CNS, 1690 nM; with MOLT-4 leukemia it was 328 nM; in the assay on RXF 393 renal it was 3850 nM; in the assay on U251 CNS, 961 nM. Also, the GI50 is 75.5 nM in the assay on K-562 leukemia and 75.1 nM in the assay with MDA-MB-231 breast. The TGI in the assay on SK-MEL-2 melanoma, in the assay with ACHN renal, in the assay on SF-268 CNS, with MOLT-4 leukemia, in the assay with RXF 393 renal and with U251 CNS was greater than 100000 nM in each case. Also, the TGI in the assay with K-562 leukemia and in the assay on MDA-MB-231 breast was greater than 100000 nM each time.

Regarding `C#CCOc1ccc2ncnc(Nc3ccc(NC(=O)C=C)cc3)c2c1`, the GI50 was greater than 100000 nM with SK-MEL-2 melanoma; 28200 nM with ACHN renal; 71300 nM in the assay on SF-268 CNS; 28400 nM in the assay on MOLT-4 leukemia; 15200 nM in the assay with RXF 393 renal; 79300 nM in the assay on U251 CNS. Moreover, the GI50 in the assay on K-562 leukemia was 3380 nM; in the assay with MDA-MB-231 breast, 29000 nM. Besides, the TGI in the assay on SK-MEL-2 melanoma is greater than 100000 nM; with ACHN renal it was greater than 100000 nM; with SF-268 CNS, greater than 100000 nM; in the assay on MOLT-4 leukemia, greater than 100000 nM; in the assay on RXF 393 renal, 58800 nM; in the assay with U251 CNS it was greater than 100000 nM. The values for the TGI in the assay with K-562 leukemia and with MDA-MB-231 breast were 23600 nM and greater than 100000 nM, respectively.

As to `N=c1c2c(=N)n3c(nc2nc2n1-c1ccccc1Sc1ccccc1-2)sc1cc(Cl)ccc13`, the GI50 in the assay with SK-MEL-2 melanoma is 1440 nM; in the assay on ACHN renal, 2180 nM; in the assay with SF-268 CNS, 3420 nM; in the assay on MOLT-4 leukemia it was 2330 nM; in the assay with RXF 393 renal, 2460 nM; with U251 CNS it was 1840 nM. Moreover, the results for the GI50 in the assay on K-562 leukemia and in the assay on MDA-MB-231 breast were 1620 nM and 2800 nM, respectively. The TGI is 13900 nM in the assay with SK-MEL-2 melanoma; greater than 100000 nM in the assay on ACHN renal; greater than 100000 nM in the assay on SF-268 CNS; greater than 100000 nM in the assay on MOLT-4 leukemia; 9520 nM in the assay on RXF 393 renal; 6790 nM with U251 CNS. Also, the TGI in the assay with K-562 leukemia is greater than 100000 nM; in the assay with MDA-MB-231 breast, 14000 nM.

Take `CCC(=O)c1c(C(F)(F)F)n([O-])c2cc(F)c(F)cc2[n+]1=O`: the GI50 with SK-MEL-2 melanoma is 663 nM; with ACHN renal it was 1250 nM; with SF-268 CNS, 1400 nM; in the assay with MOLT-4 leukemia it was 196 nM; in the assay with RXF 393 renal, 1370 nM; in the assay on U251 CNS it was 1430 nM. For the same molecule, the GI50 is 154 nM with K-562 leukemia and 594 nM with MDA-MB-231 breast. For the same molecule, the TGI in the assay with SK-MEL-2 melanoma is greater than 20000 nM; in the assay with ACHN renal it was 2660 nM; in the assay on SF-268 CNS it was 3210 nM; in the assay on MOLT-4 leukemia, greater than 100000 nM; in the assay with RXF 393 renal it was 3250 nM; with U251 CNS, 3390 nM. Also, the values for the TGI with K-562 leukemia and with MDA-MB-231 breast were greater than 100000 nM and 1490 nM, respectively.

Take `Cn1ncc(Cl)c1-c1cc(C(=O)N[C@H](CN)Cc2ccc(F)c(F)c2)oc1Cl`: the GI50 in the assay with SK-MEL-2 melanoma was 2440 nM and 1770 nM; in the assay with ACHN renal, 2230 nM and 1860 nM; with SF-268 CNS it was 3360 nM and 2080 nM; in the assay with MOLT-4 leukemia, 93.1 nM and 100 nM; in the assay with RXF 393 renal, 36.1 nM and 33.8 nM; in the assay on U251 CNS, 289 nM and 171 nM. Further, the GI50 with K-562 leukemia is 2340 nM and 3010 nM; with MDA-MB-231 breast, 2590 nM and 1720 nM. The TGI in the assay with SK-MEL-2 melanoma is 6820 nM and 4720 nM; in the assay with ACHN renal, 14200 nM and > 10000 nM; with SF-268 CNS, 17100 nM and > 10000 nM; with MOLT-4 leukemia, 2250 nM and > 6730 nM; in the assay with RXF 393 renal, 534 nM and 705 nM; in the assay on U251 CNS, 13500 nM and > 9510 nM. Also, the TGI was 7350 nM and > 8680 nM in the assay on K-562 leukemia; 9870 nM and 5760 nM with MDA-MB-231 breast.

On to `O=C1/C=C/[C@@H](O)[C@@H]2C[C@@H](O)C[C@H]2/C=C/CCC[C@H](C(F)(F)F)O1`, for which the GI50 is 244 nM in the assay with SK-MEL-2 melanoma; 197 nM in the assay with ACHN renal; 403 nM with SF-268 CNS; 174 nM in the assay on MOLT-4 leukemia; 86.4 nM with RXF 393 renal; 1700 nM in the assay on U251 CNS. Further, the GI50 in the assay with K-562 leukemia was 336 nM; with MDA-MB-231 breast, 268 nM. Besides, the TGI is 780 nM with SK-MEL-2 melanoma; greater than 77800 nM in the assay with SF-268 CNS; 625 nM in the assay on MOLT-4 leukemia; 38700 nM with RXF 393 renal; greater than 100000 nM in the assay with U251 CNS; greater than 69100 nM in the assay on K-562 leukemia. The TGI with MDA-MB-231 breast turned out to be 774 nM.
